We go through 1 compound from paper PMC4110944, “Probing SH2-domains using Inhibitor Affinity Purification (IAP)” (Proteome Science, 2014).

Each structure is given as a SMILES string.

For one assay, the system named is regulatory PI3K subunits. As to the kind of experiment: Dose response competition pull-down with free compound 1 against immobilized probe 1 in Colo205 lysate. Type of assay: binding, human. Conditions: Colo205 lysates, competition with immobilized probe 1; read-out: IC50 values for the captured regulatory PI3K subunits. Here is the method: (§1) A competitive binding experiment was performed to validate the results obtained under pervanadate-depletion conditions (Additional file 4). Dose response pull-down experiments were accomplished in Colo205 lysates with increasing concentrations of the free compound 1 that competes with the immobilized probe 1 for SH2 domain binding (Additional file 5). […] Additionally, these findings underscore the results of the pervanadate depletion experiments that indicate that the regulatory PI3 kinase subunits specifically interact with probe 1 via an SH2 domain. The regulatory PI3K subunits PI3KR1 and PI3KR2 contain a C-terminal and an N-terminal SH2 domain. The real IC50 values are likely smaller than the measured values for PI3KR1 and PI3KR2, since it is impossible to distinguish whether one of the two domains or both simultaneously interact with equal affinity with probe 1[35].
(§2) SH2 probe pulldowns were performed as described previously. […]

Another assay deals with T1, PIK3R2 (Homo sapiens, UniProt O00459).
T1 construct: Dose response pull-down experiments were accomplished in Colo205 lysates; endogenous in cells; host or cells: Colo205 cell lysate
The description is as above. It counts as binding. Conditions: Colo205 cell lysate, free compound 1 competing with immobilized probe 1. Here is the method:
as §1
(§3) Figure 5 Dose-response curves. Pulldown experiments were conducted using probe 1 with Colo205 cell lysate and increasing concentrations of the free compound 1.
as §2
(§4) Raw MS data were processed by MaxQuant (v1.4.0.5) for peak detection and quantification […]

For another assay, the target named is T2, PIK3R1 (Homo sapiens, UniProt P27986).
T2 construct: Dose response pull-down experiments were accomplished in Colo205 lysates; endogenous in cells; host or cells: Colo205 cell lysate
The assay is described as above. Type of assay: binding. The note with it: Colo205 cell lysate, free compound 1 competing with immobilized probe 1. The protocol:
as §1, §3, §2, §4

For the next assay, the system named is SH2 proteins. As to the kind of experiment: Dose response competition pull-down in Colo205 lysate. It counts as binding, human. Conditions: increasing free compound 1. Here is the method:
as §1, §2

Another assay concerns the target T3, tubulin beta chain (TBB) (Homo sapiens, UniProt P07437).
T3 construct: Dose response pull-down experiments were accomplished in Colo205 lysates; endogenous in cells; host or cells: Colo205 cell lysate
The description is as above. Type of assay: binding. Conditions: increasing free compound 1. Here is the method: as §1, §2

Take `CCCCCN(CCOCCOCCN)C(=O)[C@H](CCC(=O)O)NC(=O)[C@H](Cc1ccc(C(F)(F)P(=O)(O)O)cc1)NC(C)=O` [probe 1]: the IC50 (commonly the concentration needed to halve the response being measured) with regulatory PI3K subunits is 10 to 23 µM; on PIK3R2, 22.6 µM; on PIK3R1, 10.3 µM. The “dose dependence of captured SH2 proteins in the competition experiment” value in the assay on SH2 proteins was “dose dependent decrease”. Besides, on tubulin beta chain (TBB), the “dose dependence of tubulin beta chain (TBB) in the competition experiment” value is listed as “do not show dose dependent decrease”.
